Here are results for four compounds from ChEMBL document CHEMBL1201862, “PubChem BioAssay data set” (2004).

What all share (assay): NCI tumour cell line growth inhibition, 48 h
Test [1] concerns K562.
Test [2] concerns EKVX.
Test [3] has as its system SN12C.
In test [4] the test system is SW-620.
Test [5] deals with HCT-116.
Test [6] deals with SK-OV-3.
In test [7] the test system is MCF7.
Test [8] relates to OVCAR-4.
In test [9] the test system is MDA-MB-231.
Test [10] concerns 786-0.
Test [11] relates to SF-268.
For test [12], the system named is MDA-N.
Test [13] deals with U-251.
For test [14], the system named is NCI-H460.
Test [15] has as its system RXF 393.
Test [16] concerns DU-145.
For test [17], the system named is UACC-62.
Test [18] has as its system Malme-3M.
In test [19] the test system is TK-10.

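Exposure lasted 48 hours, with cells grown in 96-well plates and compounds tested at five concentrations. At the GI50, growth is halved.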 The source made the active and inactive calls. No stated cut-off is given here; in the data, active = GI50 up to about 1.1 µM and inactive = higher.

As to `CC1OC(OC2C(O[C@@H]3C[C@@H]4CC[C@@H]5[C@H](CC[C@]6(C)[C@@H]7[C@H](C[C@@H]56)O[C@]5(CC[C@@H](C)CO5)[C@H]7C)[C@@]4(C)C[C@H]3O)OC(CO)C(OC3OC(CO)C(O)C(O)C3O)C2O)C(O)C(O)C1O` (some centres not stated), the GI50 is 5.92 µM (inactive) in [1]; 1.51 µM (inactive) in [2]; 1.68 µM (inactive) in test [3]; 1.67 µM (inactive) in [4]; 3.78 µM (inactive) in [5]; 1.69 µM (inactive) in [6]. Also, the GI50 is 1.85 µM (inactive) in [7]; 2.06 µM (inactive) in test [8]; 1.8 µM (inactive) in test [9]; 1.73 µM (inactive) in test [10]; 1.84 µM (inactive) in test [11]; 1.91 µM (inactive) in [12]. Also, the GI50 in [13] was 1.81 µM (inactive); in test [14], 1.76 µM (inactive); in test [15] it was 2.01 µM (inactive); in test [16] it was 2.08 µM (inactive); in test [17] it was 1.92 µM (inactive); in [18], 1.29 µM (inactive).

Take `COc1ccc(O)c(/C=N/CCC/N=C/c2cc(OC)ccc2O)c1`: the GI50 in [1] was 10.9 µM (inactive); in test [2], 20.2 µM (inactive); in [3], 30 µM (inactive); in [4], 39 µM (inactive); in test [5], 40.8 µM (inactive); in [19], 34.9 µM (inactive). In addition, the GI50 in test [7] is 20.9 µM (inactive); in test [8] it was 21.8 µM (inactive); in test [9], 31.3 µM (inactive); in test [10] it was 33.7 µM (inactive); in test [12], 31.3 µM (inactive); in [13], 16.7 µM (inactive). In addition, the GI50 in test [14] is 41.4 µM (inactive); in [15] it was 25.6 µM (inactive); in test [16] it was 22 µM (inactive); in test [17], 33.1 µM (inactive); in test [18], 13.7 µM (inactive).

Turning to `C/C1=C/C(=O)O[C@@H]2C[C@@H](CC[C@H](C)/C=C\C=C\CC1)O[C@@](O)([C@@H]1CSC(=O)N1)C2` [LATRUNCULIN A], the GI50 in test [1] is 3.34 µM (inactive); in test [2] it was 0.74 µM (active); in test [3] it was 0.428 µM (active); in test [5], 0.773 µM (active); in test [19], 0.264 µM (active); in test [6], > 4.16 µM (inactive). Also, the GI50 is 1.28 µM (inactive) in [7]; 1.02 µM (active) in [8]; 0.0834 µM (active) in test [9]; 0.226 µM (active) in [10]; 0.305 µM (active) in test [11]; > 5.07 µM (inactive) in test [12]. Besides, the GI50 was > 10 µM (inactive) in [13]; 0.8 µM (active) in test [14]; 0.191 µM (active) in test [15]; 2.77 µM (inactive) in test [16]; 0.348 µM (active) in test [17]; 0.895 µM (active) in [18].

Take `CC(=O)NC1=CC(=O)C=C(Cl)C1=O`: the GI50 is 33.7 µM (inactive) in test [1]; > 100 µM (inactive) in test [2]; > 100 µM (inactive) in test [3]; 19 µM (inactive) in test [4]; > 100 µM (inactive) in test [5]; > 100 µM (inactive) in [19]. Moreover, the GI50 in [6] was > 100 µM (inactive); in [7], 28.7 µM (inactive); in test [8], 18.1 µM (inactive); in test [9] it was > 100 µM (inactive); in test [10], > 100 µM (inactive); in test [11], > 100 µM (inactive). Also, the GI50 in [12] was 16.8 µM (inactive); in test [13], > 100 µM (inactive); in test [14], > 100 µM (inactive); in test [15], 92.5 µM (inactive); in test [16], > 100 µM (inactive); in test [17] it was 37.5 µM (inactive). Besides, the GI50 in test [18] is 25.7 µM (inactive).
